{"source": "patent US20070142433A1", "about": "“Angiogenesis-affecting compounds and methods of use thereof” (priority 2004, published 2007)", "key": {"[1]": {"system": "NHDF (human dermal fibroblasts) scattering", "assay": "NHDF spheroid evaluation (fibroblast scattering)", "type": "cell-based", "method": "Where the test compound was classified as an inhibitor or stimulator, a second screening process was performed. In the second screen, the test substance was thawed and 5 mM of the substance was diluted to a 10 fold concentrated working solution (100 μM) in endothelial cell basal medium. No supplements were used in the basal medium.\nInstead of HUVEC, spheroids were prepared by pipetting 400 human dermal fibroblasts (NHDF) into each well of nonadhesive 96-well plates. Prior to use the NHDF were cultured according to the supplier's instructions (PromoCell, Heidelberg, Germany). The cells were allowed to aggregate overnight into spheroids (Korff and Augustin: J Cell Biol 143: 1341-52, 1998). After aggregation, 48 NHDF spheroids were harvested. Each of the harvested spheroids was seeded in 900 μl of methocel-collagen solution and pipetted into an individual well of a 24-well plate to allow collagen gel polymerization.\n(§1) Thirty (30) minutes after seeding, the test substance was added. The working dilution (10 fold concentration) was utilized, 100 μl was pipetted on top of the polymerized collagen gel in each well. The plates were then incubated at 37° C. for 24 hours. At the end of the incubation period the plates were fixed by adding 1 ml paraformaldehyde (10%) to each well.\nThe NHDF spheroids were microscopically assayed for fibroblast scattering intensity. […] For exemplary results, see FIG. 1."}, "RENCA [2]": {"system": "RENCA", "assay": "Cell proliferation assay (crystal violet), RENCA", "type": "cell-based", "conditions": "72 hours, OD 595 nm", "method": "(§2) In order to further confirm the surprising results described above, the compounds were tested in a cell proliferation assay. Crystal violet was used to measure cell proliferation; this basic dye stains cell nuclei and provides a sensitive, rapid evaluation. Light absorption of unstained or destained cell layers is negligible, making it possible to perform cell number measurements in wells. Six cell types (HUVEC, HDMEC, SMC, Fibroblast, A375 and RENCA) were plated and treated with the compounds in a log2 titration for 72 hours. The optimal cell number for each cell type was determined and optical density (OD) was measured at 595 nm. Each data point was measured in quadruplicate. The assay was stopped after 72 hours and subsequently analyzed. The OD-value of the plated cells before addition of the compounds was subtracted from all OD-values obtained after treatment. The percentage in relation to control proliferation was then calculated. Negative values therefore represent a count of fewer cells than were plated. The IC50 is given below in Table 1. Results are shown as a percentage in relation to the control proliferation. The IC50 were calculated using GraphPad Prism software (GraphPad Software, Inc.). Perhexiline results are depicted graphically in FIGS. 4A-4C and Erythromycin results in FIGS. 5A-5C."}, "[3]": {"system": "Endothelial cells, Fibroblast, Alexander cells", "assay": "Viability of cells (Endothelial cells, Fibroblast, Alexander cells)", "type": "cell-based"}, "SMC [4]": {"system": "SMC", "assay": "Cytoviability assay (resazurin), SMC", "type": "cell-based", "conditions": "24 hours after treatment, read-out: IC50 cell viability SMC", "method": "(§3) A cell viability assay based on cellular reduction of resazurin to the fluorescent product resorufin was performed. Viable cells can metabolize and reduce the dye, whereas dead cells rapidly lose the capacity to do so, making the increase in fluorescence directly proportional to the number of viable cells. The tested compounds were added in a log2 titration and viable cells were analyzed 24 hours after treatment. The fluorescence was determined at an excitation wavelength of 560 nm and an emission wavelength of 590 nm. The percentage of viable cells in relation to the untreated control proliferation was calculated. […] Perhexiline results are depicted graphically in FIGS. 6A-6C and Erythromycin results in FIGS. 7A-7C."}, "A375 [5]": {"system": "A375", "assay": "Cytoviability assay (resazurin), A375", "type": "cell-based", "conditions": "Homo sapiens, A-375, 24 hours after treatment, read-out: IC50 cell viability A375", "method": "as §3"}, "RENCA [6]": {"system": "RENCA", "assay": "Cytoviability assay (resazurin), RENCA", "type": "cell-based", "conditions": "24 hours after treatment, read-out: IC50 cell viability RENCA", "method": "as §3"}, "HUVEC sprouting": {"system": "HUVEC sprouting", "assay": "Primary angiogenesis screen, HUVEC spheroid evaluation (EC sprouting)", "type": "cell-based, human", "conditions": "HUVEC spheroids in collagen gel, VEGF-supplemented, 24 hours", "method": "A test substance was selected for evaluation in angiogenesis screens. The test substance was synthesized or obtained as appropriate and stored at −20° C. in DMSO. Prior to use, the test substance was thawed and 5 mM of the substance was diluted to a 10 fold concentrated working solution (100 μM) in endothelial cell basal medium. The basal medium fraction was supplemented with 25 ng VEGF/100 μl for the stimulation of HUVEC sprouting.\nThe screening procedures were modified versions of those described by Korff and Augustin (J Cell Sci 112: 3249-58, 1999). By way of summary, spheroids were prepared by pipetting 400 human umbilical vein endothelial cells (HUVEC) into each well of nonadhesive 96-well plates. Prior to use the HUVEC were cultured according to the supplier's instructions (PromoCell, Heidelberg, Germany). The cells were allowed to aggregate overnight into spheroids (Korff and Augustin: J Cell Biol 143: 1341-52, 1998). After aggregation, 48 HUVEC spheriods were harvested. Each harvested spheroid was seeded in 900 μl of methocel-collagen solution and pipetted into an individual well of a 24-well plate to allow collagen gel polymerization.\nas §1\nThe HUVEC spheriods were microscopically assayed for endothelial cell (EC) sprouting intensity. The degree of EC sprouting was classified into one of four groups by comparing the degree of sprouting to that observed in VEGF control cells. […] For exemplary results, see FIG. 1."}, "A375 [7]": {"system": "A375", "assay": "Cell proliferation assay (crystal violet), A375", "type": "cell-based", "conditions": "Homo sapiens, A-375, 72 hours, OD 595 nm", "method": "as §2"}, "Fibroblast": {"system": "Fibroblast", "assay": "Cytoviability assay (resazurin), Fibroblast", "type": "cell-based", "conditions": "24 hours after treatment, read-out: IC50 cell viability Fibroblast", "method": "as §3"}, "HDMEC": {"system": "HDMEC", "assay": "Cytoviability assay (resazurin), HDMEC", "type": "cell-based", "conditions": "24 hours after treatment, read-out: IC50 cell viability HDMEC", "method": "as §3"}, "SMC [8]": {"system": "SMC", "assay": "Cell proliferation assay (crystal violet), SMC", "type": "cell-based", "conditions": "72 hours, OD 595 nm", "method": "as §2"}, "HUVEC": {"system": "HUVEC", "assay": "Cytoviability assay (resazurin), HUVEC", "type": "cell-based", "conditions": "Homo sapiens, 24 hours after treatment, read-out: IC50 cell viability HUVEC", "method": "as §3"}}, "note": "Where a name gives a salt, the structure may show the parent alone."}
{"compound": "C1CCC(C(CC2CCCCN2)C2CCCCC2)CC1", "note": "(stereo not shown) [Perhexiline, Perhexiline maleate]", "values": [{"measurement": "IC50", "setting": "[1]; Homo sapiens, NHDF", "value": 19, "unit": "µM"}, {"measurement": "fibroblast scattering (invasion) effect", "setting": "[1]; NHDF spheroids in collagen gel, no supplements, 24 hours", "value": "no fibroblast invasion effect"}, {"measurement": "IC50", "setting": "RENCA [2]", "value": 7.6, "unit": "µM"}, {"measurement": "IC50", "setting": "[3]", "value": "~10", "unit": "µM"}, {"measurement": "IC50", "setting": "SMC [4]", "value": 32, "unit": "µM"}, {"measurement": "IC50", "setting": "A375 [5]", "value": 10, "unit": "µM"}, {"measurement": "IC50", "setting": "RENCA [6]", "value": 5, "unit": "µM"}, {"measurement": "EC sprouting intensity compared with VEGF control", "setting": "HUVEC sprouting", "value": "sprouting inhibition"}, {"measurement": "IC50", "setting": "A375 [7]", "value": 25, "unit": "µM"}, {"measurement": "IC50", "setting": "Fibroblast", "value": 5.2, "unit": "µM"}, {"measurement": "IC50", "setting": "HDMEC", "value": 8, "unit": "µM"}, {"measurement": "IC50", "setting": "SMC [8]", "value": 14, "unit": "µM"}, {"measurement": "IC50", "setting": "HUVEC", "value": 8.4, "unit": "µM"}]}
